{"source": "paper PMC5529566", "about": "“The cryo-EM structure of gastric H^+,K^+-ATPase with bound BYK99, a high-affinity member of K^+-competitive, imidazo[1,2-a]pyridine inhibitors” (Scientific Reports, 2017)", "key": {"[1]": {"biological_target": "H^+,K^+-ATPase D137N/N138D (Sus scrofa, UniProt P19156, D138N/N139D)", "test": "ATPase assay, D137N/N138D mutant"}, "[2]": {"biological_target": "H^+,K^+-ATPase V338A (Sus scrofa, UniProt P19156, V339A)", "test": "ATPase assay, V338A mutant"}, "[3]": {"biological_target": "H^+,K^+-ATPase M334F (Sus scrofa, UniProt P19156, M335F)", "test": "ATPase assay, M334F mutant"}, "[4]": {"biological_target": "H^+,K^+-ATPase Y799F (Sus scrofa, UniProt P19156, Y800F)", "sequence (P19156 whole entry Y800F)": "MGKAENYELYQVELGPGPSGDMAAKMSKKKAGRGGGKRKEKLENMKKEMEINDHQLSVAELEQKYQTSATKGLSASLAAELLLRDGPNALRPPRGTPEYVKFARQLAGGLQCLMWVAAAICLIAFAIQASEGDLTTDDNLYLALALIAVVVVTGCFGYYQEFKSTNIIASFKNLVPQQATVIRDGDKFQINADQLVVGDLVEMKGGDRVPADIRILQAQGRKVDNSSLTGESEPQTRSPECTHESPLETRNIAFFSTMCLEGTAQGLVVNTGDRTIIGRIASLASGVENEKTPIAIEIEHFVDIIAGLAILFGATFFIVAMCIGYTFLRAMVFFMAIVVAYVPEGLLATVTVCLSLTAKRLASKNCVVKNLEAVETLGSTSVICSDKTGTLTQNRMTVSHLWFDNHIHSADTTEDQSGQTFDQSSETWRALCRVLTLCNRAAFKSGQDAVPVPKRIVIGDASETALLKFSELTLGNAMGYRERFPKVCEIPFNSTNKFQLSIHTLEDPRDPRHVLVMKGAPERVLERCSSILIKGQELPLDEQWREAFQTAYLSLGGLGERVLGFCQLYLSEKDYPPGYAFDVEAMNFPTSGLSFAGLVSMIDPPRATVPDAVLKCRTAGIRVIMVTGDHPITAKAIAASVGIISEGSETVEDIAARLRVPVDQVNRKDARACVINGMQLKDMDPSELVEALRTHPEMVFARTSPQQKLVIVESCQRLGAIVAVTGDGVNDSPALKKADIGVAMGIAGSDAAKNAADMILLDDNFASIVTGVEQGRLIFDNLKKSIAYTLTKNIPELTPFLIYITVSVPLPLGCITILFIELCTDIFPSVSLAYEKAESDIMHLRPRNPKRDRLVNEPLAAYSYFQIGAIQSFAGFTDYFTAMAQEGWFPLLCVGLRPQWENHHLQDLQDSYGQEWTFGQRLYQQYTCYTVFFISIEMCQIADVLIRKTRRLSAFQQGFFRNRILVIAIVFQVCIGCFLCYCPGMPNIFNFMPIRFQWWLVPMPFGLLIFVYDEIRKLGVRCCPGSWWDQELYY", "sequence (P18434 whole entry partner)": "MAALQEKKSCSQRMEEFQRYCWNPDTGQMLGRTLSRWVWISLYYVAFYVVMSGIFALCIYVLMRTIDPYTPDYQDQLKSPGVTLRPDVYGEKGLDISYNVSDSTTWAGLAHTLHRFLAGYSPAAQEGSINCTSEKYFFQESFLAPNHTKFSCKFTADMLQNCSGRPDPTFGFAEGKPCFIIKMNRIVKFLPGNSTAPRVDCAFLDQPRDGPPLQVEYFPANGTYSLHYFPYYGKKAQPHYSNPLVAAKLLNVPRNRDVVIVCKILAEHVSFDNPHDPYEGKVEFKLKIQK", "test": "ATPase assay, Y799F mutant"}, "[5]": {"biological_target": "H^+,K^+-ATPase Q127A (Sus scrofa, UniProt P19156, Q128A)", "test": "ATPase assay, Q127A mutant"}, "[6]": {"biological_target": "H^+,K^+-ATPase D137I (Sus scrofa, UniProt P19156, D138I)", "test": "ATPase assay, D137I mutant"}, "[7]": {"biological_target": "T1, H^+,K^+-ATPase I126F (Sus scrofa, UniProt P19156, I127F)", "T1 construct": "made in house; host or cells: HEK293S GnT1- cells (BacMam baculovirus transduction); permeabilised membrane fractions", "test": "ATPase assay, I126F mutant", "format": "biochemical, pig"}, "[8]": {"biological_target": "H^+,K^+-ATPase L796F (Sus scrofa, UniProt P19156, L797F)", "test": "ATPase assay, L796F mutant"}, "[9]": {"biological_target": "T2, H^+,K^+-ATPase I126A (Sus scrofa, UniProt P19156, I127A)", "T2 construct": "made in house; host or cells: HEK293S GnT1- cells (BacMam baculovirus transduction); permeabilised membrane fractions", "test": "ATPase assay, I126A mutant", "format": "biochemical, pig"}, "[10]": {"biological_target": "H^+,K^+-ATPase A125S (Sus scrofa, UniProt P19156, A126S)", "test": "ATPase assay, A125S mutant"}, "[11]": {"test_system": "H^+,K^+-ATPase", "parameters": "method as in doi:10.1016/j.tetlet.2006.02.156", "conditions": "cited from earlier work"}, "[12]": {"biological_target": "H^+,K^+-ATPase Q127F (Sus scrofa, UniProt P19156, Q128F)", "test": "ATPase assay, Q127F mutant"}, "[13]": {"biological_target": "H^+,K^+-ATPase V331F (Sus scrofa, UniProt P19156, V332F)", "test": "ATPase assay, V331F mutant"}, "[14]": {"biological_target": "H^+,K^+-ATPase L141I (Sus scrofa, UniProt P19156, L142I)", "test": "ATPase assay, L141I mutant"}, "[15]": {"biological_target": "H^+,K^+-ATPase N138A (Sus scrofa, UniProt P19156, N139A)", "test": "ATPase assay, N138A mutant"}, "[16]": {"biological_target": "T3, H^+,K^+-ATPase D137E (Sus scrofa, UniProt P19156, D138E)", "T3 construct": "made in house; host or cells: HEK293S GnT1- cells (BacMam baculovirus transduction), membrane fraction", "T3 sequence (P19156 whole entry D138E)": "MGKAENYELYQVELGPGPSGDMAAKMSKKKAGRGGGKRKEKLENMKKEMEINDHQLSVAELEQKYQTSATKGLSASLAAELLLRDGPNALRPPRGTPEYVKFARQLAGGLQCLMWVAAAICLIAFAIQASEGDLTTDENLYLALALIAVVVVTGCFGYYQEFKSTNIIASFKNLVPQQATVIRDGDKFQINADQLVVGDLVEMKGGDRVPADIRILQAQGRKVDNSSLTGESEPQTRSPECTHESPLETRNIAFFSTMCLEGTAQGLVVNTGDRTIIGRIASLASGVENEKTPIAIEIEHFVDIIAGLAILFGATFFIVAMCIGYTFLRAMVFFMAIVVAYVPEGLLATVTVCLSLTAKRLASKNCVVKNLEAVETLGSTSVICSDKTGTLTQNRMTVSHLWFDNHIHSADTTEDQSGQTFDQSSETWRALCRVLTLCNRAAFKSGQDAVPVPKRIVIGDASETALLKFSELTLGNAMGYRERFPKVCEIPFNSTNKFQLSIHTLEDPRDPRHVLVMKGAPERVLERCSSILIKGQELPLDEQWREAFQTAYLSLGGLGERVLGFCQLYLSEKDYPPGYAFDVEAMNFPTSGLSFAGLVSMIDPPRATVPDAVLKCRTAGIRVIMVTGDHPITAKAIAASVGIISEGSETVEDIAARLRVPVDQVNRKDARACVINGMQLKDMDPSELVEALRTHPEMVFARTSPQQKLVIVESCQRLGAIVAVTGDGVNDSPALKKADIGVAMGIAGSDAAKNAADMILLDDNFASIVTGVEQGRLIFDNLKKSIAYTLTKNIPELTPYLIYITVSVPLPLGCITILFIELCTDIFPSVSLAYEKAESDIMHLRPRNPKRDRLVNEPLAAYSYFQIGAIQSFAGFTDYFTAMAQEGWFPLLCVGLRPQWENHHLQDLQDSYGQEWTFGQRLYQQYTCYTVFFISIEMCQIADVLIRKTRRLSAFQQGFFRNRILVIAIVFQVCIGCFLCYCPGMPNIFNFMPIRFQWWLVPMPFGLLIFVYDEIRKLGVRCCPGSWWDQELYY", "T3 sequence (P18434 whole entry partner)": "as the sequence (P18434 whole entry partner) above", "test": "ATPase assay, D137E mutant", "format": "biochemical, pig"}, "[17]": {"biological_target": "H^+,K^+-ATPase A335G (Sus scrofa, UniProt P19156, A336G)", "sequence (P19156 whole entry A336G)": "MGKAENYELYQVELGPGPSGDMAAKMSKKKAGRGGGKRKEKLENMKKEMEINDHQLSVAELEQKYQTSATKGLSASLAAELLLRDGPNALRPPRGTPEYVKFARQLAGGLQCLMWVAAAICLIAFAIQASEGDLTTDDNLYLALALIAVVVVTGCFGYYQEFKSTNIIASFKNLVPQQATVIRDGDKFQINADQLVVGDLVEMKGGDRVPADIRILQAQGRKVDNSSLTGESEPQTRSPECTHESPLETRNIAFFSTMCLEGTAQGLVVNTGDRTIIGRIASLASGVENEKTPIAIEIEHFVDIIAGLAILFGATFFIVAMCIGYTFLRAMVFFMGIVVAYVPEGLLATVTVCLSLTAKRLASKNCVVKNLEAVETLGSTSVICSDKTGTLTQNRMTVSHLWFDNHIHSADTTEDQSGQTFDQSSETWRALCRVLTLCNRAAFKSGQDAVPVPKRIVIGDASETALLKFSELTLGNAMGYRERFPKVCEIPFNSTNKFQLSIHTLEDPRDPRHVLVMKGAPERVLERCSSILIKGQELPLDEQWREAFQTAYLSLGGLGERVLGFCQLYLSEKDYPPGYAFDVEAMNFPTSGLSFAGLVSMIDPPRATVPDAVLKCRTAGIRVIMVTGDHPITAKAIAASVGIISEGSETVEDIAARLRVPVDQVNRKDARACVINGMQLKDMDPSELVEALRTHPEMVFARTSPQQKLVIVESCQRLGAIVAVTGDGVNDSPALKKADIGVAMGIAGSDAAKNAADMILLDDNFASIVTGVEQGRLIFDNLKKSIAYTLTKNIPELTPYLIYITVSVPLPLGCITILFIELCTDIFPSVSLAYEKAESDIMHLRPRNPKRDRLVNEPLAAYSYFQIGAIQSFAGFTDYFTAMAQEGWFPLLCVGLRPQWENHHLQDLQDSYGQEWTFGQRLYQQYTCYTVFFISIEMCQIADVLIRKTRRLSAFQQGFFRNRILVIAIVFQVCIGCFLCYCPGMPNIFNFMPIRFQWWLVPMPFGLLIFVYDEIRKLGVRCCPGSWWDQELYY", "sequence (P18434 whole entry partner)": "as the sequence (P18434 whole entry partner) above", "test": "ATPase assay, A335G mutant"}, "[18]": {"biological_target": "H^+,K^+-ATPase N138F (Sus scrofa, UniProt P19156, N139F)", "test": "ATPase assay, N138F mutant"}, "[19]": {"biological_target": "H^+,K^+-ATPase L139F (Sus scrofa, UniProt P19156, L140F)", "test": "ATPase assay, L139F mutant"}, "[20]": {"biological_target": "H^+,K^+-ATPase D137A (Sus scrofa, UniProt P19156, D138A)", "sequence (P19156 whole entry D138A)": "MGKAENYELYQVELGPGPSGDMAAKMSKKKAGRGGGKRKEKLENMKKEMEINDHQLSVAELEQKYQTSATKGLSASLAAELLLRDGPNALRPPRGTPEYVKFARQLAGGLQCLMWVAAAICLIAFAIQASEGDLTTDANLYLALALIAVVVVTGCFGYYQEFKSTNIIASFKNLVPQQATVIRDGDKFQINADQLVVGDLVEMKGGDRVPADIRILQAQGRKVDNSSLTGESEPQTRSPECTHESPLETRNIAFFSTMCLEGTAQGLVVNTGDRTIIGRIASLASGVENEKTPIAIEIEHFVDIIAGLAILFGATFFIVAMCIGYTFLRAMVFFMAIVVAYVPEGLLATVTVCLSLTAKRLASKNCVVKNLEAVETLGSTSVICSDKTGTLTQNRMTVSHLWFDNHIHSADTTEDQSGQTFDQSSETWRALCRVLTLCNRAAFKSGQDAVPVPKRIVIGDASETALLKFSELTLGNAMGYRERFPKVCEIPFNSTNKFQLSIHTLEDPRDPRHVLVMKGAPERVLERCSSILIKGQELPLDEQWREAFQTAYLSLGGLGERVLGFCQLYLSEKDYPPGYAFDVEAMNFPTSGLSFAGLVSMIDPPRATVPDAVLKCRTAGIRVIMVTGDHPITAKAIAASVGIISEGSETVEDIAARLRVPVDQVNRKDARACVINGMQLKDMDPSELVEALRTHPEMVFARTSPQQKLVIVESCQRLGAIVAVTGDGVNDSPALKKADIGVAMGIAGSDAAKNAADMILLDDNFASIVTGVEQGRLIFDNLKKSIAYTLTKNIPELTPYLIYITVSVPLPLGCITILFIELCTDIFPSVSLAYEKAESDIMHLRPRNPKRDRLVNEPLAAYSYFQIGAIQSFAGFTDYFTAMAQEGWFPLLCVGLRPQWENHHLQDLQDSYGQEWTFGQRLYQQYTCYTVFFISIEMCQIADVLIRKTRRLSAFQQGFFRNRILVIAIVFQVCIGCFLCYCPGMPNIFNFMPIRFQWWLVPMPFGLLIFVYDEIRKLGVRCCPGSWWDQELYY", "sequence (P18434 whole entry partner)": "as the sequence (P18434 whole entry partner) above", "test": "ATPase assay, D137A mutant"}, "[21]": {"biological_target": "H^+,K^+-ATPase N138L (Sus scrofa, UniProt P19156, N139L)", "test": "ATPase assay, N138L mutant"}}, "data": [{"compound": "Cc1nc2c3c(ccn2c1C)[C@@H](O)[C@H](O)[C@@H](c1ccccc1)N3", "note": "[BYK99]", "values": [{"measurement": "Ki", "setting": "[1]", "result": "110 ± 10", "unit": "nM"}, {"measurement": "-fold increase in K i compared with wild-type", "setting": "[1]; D137N/N138D", "result": 19, "unit": "fold"}, {"measurement": "Ki", "setting": "[2]", "result": "50 ± 7", "unit": "nM"}, {"measurement": "-fold increase in K i compared with wild-type", "setting": "[2]; V338A", "result": 8.6, "unit": "fold"}, {"measurement": "Ki", "setting": "[3]", "result": "16 ± 4", "unit": "nM"}, {"measurement": "-fold increase in K i compared with wild-type", "setting": "[3]; M334F", "result": 2.8, "unit": "fold"}, {"measurement": "Ki", "setting": "[4]", "result": "110 ± 10", "unit": "nM"}, {"measurement": "-fold increase in K i compared with wild-type", "setting": "[4]; Y799F", "result": 19, "unit": "fold"}, {"measurement": "Ki", "setting": "[5]", "result": "19 ± 1", "unit": "nM"}, {"measurement": "-fold increase in K i compared with wild-type", "setting": "[5]; Q127A", "result": 3.3, "unit": "fold"}, {"measurement": "Ki", "setting": "[6]", "result": "62 ± 15", "unit": "nM"}, {"measurement": "-fold increase in K i compared with wild-type", "setting": "[6]; D137I", "result": 11, "unit": "fold"}, {"measurement": "-fold increase in K i compared with wild-type", "setting": "[7]; I126F", "result": 4.1, "unit": "fold"}, {"measurement": "Ki", "setting": "[7]; I126F (M1), high H^+-ATPase activity, K i determined by K m/V max plot", "result": "24 ± 15", "unit": "nM"}, {"measurement": "Ki", "setting": "[8]", "result": "106 ± 10", "unit": "nM"}, {"measurement": "-fold increase in K i compared with wild-type", "setting": "[8]; L796F", "result": 18, "unit": "fold"}, {"measurement": "-fold increase in K i compared with wild-type", "setting": "[9]; I126A", "result": 19, "unit": "fold"}, {"measurement": "Ki", "setting": "[9]; I126A (M1), high H^+-ATPase activity, K i determined by K m/V max plot", "result": "110 ± 50", "unit": "nM"}, {"measurement": "Ki", "setting": "[10]", "result": "27 ± 2", "unit": "nM"}, {"measurement": "-fold increase in K i compared with wild-type", "setting": "[10]; A125S", "result": 4.6, "unit": "fold"}, {"measurement": "fold higher affinity than SCH28080", "setting": "[11]", "result": "more than 20 fold"}, {"measurement": "Ki", "setting": "[12]", "result": "41 ± 7", "unit": "nM"}, {"measurement": "-fold increase in K i compared with wild-type", "setting": "[12]; Q127F", "result": 7.1, "unit": "fold"}, {"measurement": "Ki", "setting": "[13]", "result": "15 ± 2", "unit": "nM"}, {"measurement": "-fold increase in K i compared with wild-type", "setting": "[13]; V331F", "result": 2.3, "unit": "fold"}, {"measurement": "Ki", "setting": "[14]", "result": "8.4 ± 1.5", "unit": "nM"}, {"measurement": "-fold increase in K i compared with wild-type", "setting": "[14]; L141I", "result": 1.4, "unit": "fold"}, {"measurement": "Ki", "setting": "[15]", "result": "1.4 ± 0.3", "unit": "nM"}, {"measurement": "-fold increase in K i compared with wild-type", "setting": "[15]; N138A", "result": 0.2, "unit": "fold"}, {"measurement": "-fold increase in K i compared with wild-type", "setting": "[16]", "result": 9.8, "unit": "fold"}, {"measurement": "Ki", "setting": "[16]; high H^+-ATPase activity, K i' determined by K m/V max plot", "result": "57 ± 16", "unit": "nM"}, {"measurement": "Ki", "setting": "[17]", "result": "1.2 ± 0.1", "unit": "nM"}, {"measurement": "-fold increase in K i compared with wild-type", "setting": "[17]; A335G", "result": 0.2, "unit": "fold"}, {"measurement": "fold increased affinity", "setting": "[17]; A335G vs WT", "result": 5, "unit": "fold"}, {"measurement": "Ki", "setting": "[18]", "result": "7.7 ± 1.2", "unit": "µM"}, {"measurement": "-fold increase in K i compared with wild-type", "setting": "[18]; N138F", "result": 1300, "unit": "fold"}, {"measurement": "Ki", "setting": "[19]", "result": "18 ± 3", "unit": "nM"}, {"measurement": "-fold increase in K i compared with wild-type", "setting": "[19]; L139F", "result": 3.1, "unit": "fold"}, {"measurement": "Ki", "setting": "[20]", "result": "81 ± 13", "unit": "nM"}, {"measurement": "-fold increase in K i compared with wild-type", "setting": "[20]; D137A", "result": 14, "unit": "fold"}, {"measurement": "Ki", "setting": "[21]", "result": "1300 ± 500", "unit": "nM"}, {"measurement": "-fold increase in K i compared with wild-type", "setting": "[21]; N138L", "result": 220, "unit": "fold"}]}]}
